Assay results: publication PMC12090182, “Repurposing of the RIPK1-Selective Benzo[1,4]oxazepin-4-one Scaffold for the Development of a Type III LIMK1/2 Inhibitor” (ACS Chemical Biology, 2025)
Several values for one entry are separate records, joined by “and”; a condition that tells them apart may be missing. Identical values can stand only once.

Columns and labels:
Type in all cases: cell-based
[1] = test system: MRC-9 cells; test: Multiplex high-content viability assessment; conditions: human fibroblast, 10 µM
Protocol: (§1) To assess the influence on cell health, a high-content screening in living cells called the multiplex high-content assay, as described previously by Tjaden et al., was performed.[38] In brief, HEK293T (ATCC CRL-1573) and U2OS (ATCCHTB-96) were cultured in DMEM plus L-glutamine (high glucose) supplemented by 10% FBS (Gibco) and penicillin/streptomycin (Gibco). MRC-9 fibroblasts ([…]) were cultured in EMEM plus L-glutamine supplemented by 10% FBS (Gibco) and penicillin/streptomycin (Gibco). Cells were seeded at a density of 1250 cells per well in a 384-well plate in a culture medium (cell culture microplate, PS, f-bottom, μClear, 781091, Greiner), with a volume of 50 μL per well. All outer wells were filled with 100 μL of PBS buffer (Gibco). […] The cell shape and fluorescence were measured before treatment and 12, 24, and 48 h after compound treatment using the CQ1 high-content confocal microscope (Yokogawa, Musashino, Japan). […] The compounds were tested at 1 and 10 μM, respectively. Acquired images of the cells were processed using Yokogawa CellPathfinder software (v3.04.02.02). […] Results were normalized to cells exposed to 0.1% DMSO. All compounds were tested in biological duplicates, and SEM (standard error of mean) was calculated of biological duplicates.

[2] = test system: U2OS cells; conditions: U2OS; 10 µM; 0 h after treatment
Protocol: as §1

[3] = test system: HEK293T cells; conditions: HEK293T, 10 µM
Protocol: as §1

## CN[C@@H]1C[C@H]2O[C@@](C)([C@@H]1OC)n1c3ccccc3c3c4c(c5c6ccccc6n2c5c31)C(=O)NC4 [staurosporine]
[1]; 0 h after treatment
  Population Healthy Nuclei (%): 63.64% and 62.50% and 53.61% and 54.10%
[1]; 12 h after treatment
  Population Fragmented Nuclei (%): 57.03% and 59.76% and 57.04% and 49.59%
  Population Healthy Nuclei (%): 32.43% and 29.76% and 33.41% and 38.90%
  Population apoptotic cell (%): 48.72% and 46.51% and 42.50% and 50.00%
[1]; 24 h after treatment
  Population Fragmented Nuclei (%): 56.12% and 54.77% and 50.00% and 53.32%
  Population Healthy Nuclei (%): 37.01% and 35.97% and 41.62% and 36.60%
[1]; 48 h after treatment
  Population Fragmented Nuclei (%): 53.07% and 56.00% and 48.62% and 54.18%
  Population Healthy Nuclei (%): 39.48% and 36.86% and 44.48% and 39.35%
[2]
  Population with increased mitochondrial mass (%): 2.11% and 3.70% and 5.56%
[3]; 0 h after treatment
  Population with membrane disruption (%): 0.00%
[3]; 12 h after treatment
  Population Healthy Nuclei (%): 64.72% and 69.22% and 71.09%
  Population cell that influence microtubule strucutre (%): 37.22% and 35.67%
[3]; 48 h after treatment
  Population apoptotic cell (%): 60.00% and 75.00% and 76.47%
